Measurements: ChEMBL document CHEMBL3045448, “Enantioselective effects of optically active alpha-methylbenzyl-s-triazine on the root growth of rice and Echinochloa plants and their herbicidal activity” (Biosci Biotechnol Biochem, 2002)
The source made the active and inactive calls. The calls are words filed in the database; no cut-off is given here.

Assays:
Echinochloa oryzicola [1] = experiment: Herbicidal activity against sprouting stage of Echinochloa oryzicola seedlings assessed as growth inhibition after 3 weeks by paddy pot test under green house conditions; format: functional, organism-based
Oryza sativa = experiment: Phytotoxicity in germinated seedlings of Oryza sativa (rice) assessed as root growth inhibition at 30 uM after 3 to 4 days; format: organism-based; conditions: in vivo
[2] = tested on: Echinochloa crus-galli var. formosensis; experiment: Phytotoxicity in germinated seedlings of Echinochloa crus-galli var. formosensis (barnyard millet) assessed as root growth inhibition at 30 uM after 3 to 4 days; format: organism-based; conditions: in vivo
Echinochloa oryzicola [3] = experiment: Herbicidal activity against Echinochloa oryzicola seedlings assessed as appearance of leaf burn symptom after 3 weeks by paddy pot test under green house conditions; format: functional, organism-based
Echinochloa oryzicola [4] = experiment: Herbicidal activity against Echinochloa oryzicola seedlings measured per 10 acres after 3 weeks by paddy pot test under green house conditions; format: functional

Structure (SMILES) | growth inhibition (GI) (Echinochloa oryzicola [1]) | growth inhibition (GI) (Oryza sativa) | further results
CCN(CC)c1nc(Cl)nc(NC(C)c2ccccc2)n1 (configuration not stated) | Active | – | –
CCCCNc1nc(Cl)nc(N[C@H](C)c2ccccc2)n1 | – | Toxic | –
C[C@@H](Nc1nc(Cl)nc(NC(C)(C)C)n1)c1ccccc1 | – | – | growth inhibition (GI) [2]: Toxic
CCCNc1nc(Cl)nc(N[C@H](C)c2ccccc2)n1 | – | Toxic | –
CCCN(CCC)c1nc(Cl)nc(N[C@H](C)c2ccccc2)n1 | – | Toxic | growth inhibition (GI) [2]: Toxic
CCNc1nc(Cl)nc(NC(C)C)n1 | – | – | Activity (Echinochloa oryzicola [3]): Active
CCC(CC)Nc1nc(Cl)nc(N[C@H](C)c2ccccc2)n1 | – | Toxic | growth inhibition (GI) [2]: Toxic
CNc1nc(Cl)nc(N[C@@H](C)c2ccccc2)n1 | – | Toxic | –
CCCN(C)c1nc(Cl)nc(N[C@H](C)c2ccccc2)n1 | – | Toxic | –
CCN(CC)c1nc(Cl)nc(N[C@@H](C)c2ccccc2)n1 | Active | – | –
CCNc1nc(Cl)nc(N[C@@H](C)c2ccccc2)n1 | – | Toxic | Activity (Echinochloa oryzicola [3]): Active
CCCN(CC)c1nc(Cl)nc(N[C@H](C)c2ccccc2)n1 | – | – | growth inhibition (GI) [2]: Toxic
CC[C@H](C)Nc1nc(Cl)nc(N[C@H](C)c2ccccc2)n1 | – | Toxic | –
CCNc1nc(Cl)nc(N[C@H](C)c2ccccc2)n1 | Active | – | Activity (Echinochloa oryzicola [3]): Active
CCN(CC)c1nc(Cl)nc(N[C@H](C)c2ccccc2)n1 | Active | – | Activity (Echinochloa oryzicola [4]): 250 g
CCNc1nc(Cl)nc(NC(C)c2ccccc2)n1 (configuration not stated) | Active | – | Activity (Echinochloa oryzicola [3]): Active
